Molecular target: T1, c-Met kinase (recombinant c-Met) (Homo sapiens, UniProt P08581)
T1 construct: 0.27 nM recombinant c-Met
Test: In vitro kinase assay I (homogeneous time-resolved fluorescence tyrosine kinase assay)
Assay type: biochemical
Summary of the method: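 Biotinylated peptide (0.5 μM) phosphorylated by 0.2 nM recombinant c-Met with 50 μM MgATP, 60 min at room temperature, pH 7.4, 5% DMSO. EDTA stop; HTRF read with Eu-anti-phosphotyrosine antibody and streptavidin-APC. IC50 from 4-parameter logistic fit.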

T1 sequence (P08581 25-1390): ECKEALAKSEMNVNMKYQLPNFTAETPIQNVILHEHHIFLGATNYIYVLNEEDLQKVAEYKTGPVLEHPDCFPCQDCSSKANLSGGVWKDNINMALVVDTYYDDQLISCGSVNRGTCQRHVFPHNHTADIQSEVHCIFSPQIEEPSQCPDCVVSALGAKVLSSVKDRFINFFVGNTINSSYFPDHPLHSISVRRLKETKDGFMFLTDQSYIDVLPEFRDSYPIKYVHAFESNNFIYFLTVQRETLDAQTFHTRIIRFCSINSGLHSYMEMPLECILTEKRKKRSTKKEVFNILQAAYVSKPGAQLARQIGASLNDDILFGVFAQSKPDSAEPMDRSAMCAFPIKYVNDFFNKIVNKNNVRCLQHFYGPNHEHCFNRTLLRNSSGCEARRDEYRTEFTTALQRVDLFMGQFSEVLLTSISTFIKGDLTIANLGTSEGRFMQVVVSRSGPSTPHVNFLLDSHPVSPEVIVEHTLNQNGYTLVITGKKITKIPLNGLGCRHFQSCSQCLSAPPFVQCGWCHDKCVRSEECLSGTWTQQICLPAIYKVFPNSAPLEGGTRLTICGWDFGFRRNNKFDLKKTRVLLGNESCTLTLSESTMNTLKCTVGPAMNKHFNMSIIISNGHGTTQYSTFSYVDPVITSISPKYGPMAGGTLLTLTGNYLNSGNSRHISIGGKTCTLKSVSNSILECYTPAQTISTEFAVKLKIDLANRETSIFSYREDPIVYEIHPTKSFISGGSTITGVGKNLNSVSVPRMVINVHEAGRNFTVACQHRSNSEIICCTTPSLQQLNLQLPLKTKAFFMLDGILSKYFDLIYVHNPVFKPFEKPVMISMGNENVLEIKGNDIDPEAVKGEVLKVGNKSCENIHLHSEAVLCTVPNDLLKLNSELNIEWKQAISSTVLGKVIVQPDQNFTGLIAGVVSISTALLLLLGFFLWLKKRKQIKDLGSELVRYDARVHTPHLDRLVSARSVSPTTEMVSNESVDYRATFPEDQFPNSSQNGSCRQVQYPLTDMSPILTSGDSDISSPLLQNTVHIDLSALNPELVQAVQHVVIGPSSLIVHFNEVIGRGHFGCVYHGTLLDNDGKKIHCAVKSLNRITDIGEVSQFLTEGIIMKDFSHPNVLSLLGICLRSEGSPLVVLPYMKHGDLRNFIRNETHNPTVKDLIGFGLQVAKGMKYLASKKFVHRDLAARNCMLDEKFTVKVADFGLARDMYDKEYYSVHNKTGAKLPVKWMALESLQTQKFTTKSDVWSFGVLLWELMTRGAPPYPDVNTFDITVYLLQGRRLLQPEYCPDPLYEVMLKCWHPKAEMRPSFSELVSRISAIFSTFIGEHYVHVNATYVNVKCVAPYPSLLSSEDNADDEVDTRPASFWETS

IC50 [nM] | Structure (SMILES)
100 to 1000 | O=c1ccn(-c2cn[nH]c2)nc1Cc1cccc(-c2ncc(O)cn2)c1 [Example 194, 3-[3-(5-Hydroxypyrimidin-2-yl)benzyl]-1-(1H-pyrazol-4-yl)pyridazin-4(1H)-one]
< 100 | CCOc1cnc(-c2cccc(Cc3nn(-c4cn[nH]c4)ccc3=O)c2)nc1 [Example 195, 3-[3-(5-Ethoxypyrimidin-2-yl)benzyl]-1-(1H-pyrazol-4-yl)pyridazin-4(1H)-one]
< 100 | COCCOC(=O)Nc1cccc(Cc2nn(-c3cn[nH]c3)ccc2=O)c1 [Example 196, 2-methoxyethyl (3-{[4-oxo-1-(1H-pyrazol-4-yl)-1,4-dihydropyridazin-3-yl]methyl}phenyl)carbamate]
< 100 | CC(C)COC(=O)Nc1cccc(Cc2nn(-c3cn[nH]c3)ccc2=O)c1 [Example 197, isobutyl (3-{[4-oxo-1-(1H-pyrazol-4-yl)-1,4-dihydropyridazin-3-yl]methyl}phenyl)carbamate]
< 100 | Cn1cc(-n2ccc(=O)c(Cc3cccc(-c4ncc(C5CCNCC5)cn4)c3)n2)cn1 [Example 200, 1-(1-Methyl-1H-pyrazol-4-yl)-3-{3-[5-(piperidin-4-yl)pyrimidin-2-yl]benzyl}pyridazin-4(1H)-one]
< 100 | Cn1cc(-n2ccc(=O)c(Cc3cccc(-c4ncc(OCC(F)(F)CN5CCOCC5)cn4)c3)n2)cn1 [Example 259, 3-(3-{5-[2,2-Difluoro-3-(morpholin-4-yl)propoxy]pyrimidin-2-yl}benzyl)-1-(1-methyl-1H-pyrazol-4-yl)pyridazin-4(1H)-one]
< 100 | CC(C)COc1cnc(-c2cccc(Cc3nn(-c4cnn(C)c4)ccc3=O)c2)nc1 [Example 261, 3-{3-[5-(2-methylpropoxy)pyrimidin-2-yl]benzyl}-1-(1-methyl-1H-pyrazol-4-yl)pyridazin-4(1H)-one]
< 100 | Cn1cc(-n2ccc(=O)c(Cc3cccc(-c4ncc(OCC5CCOCC5)cn4)c3)n2)cn1 [Example 262, 1-(1-methyl-1H-pyrazol-4-yl)-3-{3-[5-(tetrahydro-2H-pyran-4-ylmethoxy)pyrimidin-2-yl]benzyl}pyridazin-4(1H)-one]
< 100 | Cn1cc(-n2ccc(=O)c(Cc3cccc(-c4ncc(OCCN5CCOCC5)cn4)c3)n2)cn1 [Example 263, 1-(1-methyl-1H-pyrazol-4-yl)-3-{3-[5-(2-morpholin-4-ylethoxy)pyrimidin-2-yl]benzyl}pyridazin-4(1H)-one]
< 100 | Cn1cc(-n2ccc(=O)c(Cc3cccc(-c4ncc(OCCO)cn4)c3)n2)cn1 [Example 264, 3-{3-[5-(2-hydroxyethoxy)pyrimidin-2-yl]benzyl}-1-(1-methyl-1H-pyrazol-4-yl)pyridazin-4(1H)-one]
< 100 | Cn1cc(-n2ccc(=O)c(Cc3cccc(-c4ncc(OCCn5cccn5)cn4)c3)n2)cn1 [Example 265, 1-(1-methyl-1H-pyrazol-4-yl)-3-(3-{5-[2-(1H-pyrazol-1-yl)ethoxy]pyrimidin-2-yl}benzyl)pyridazin-4(1H)-one]
< 100 | COC(C)(C)COc1cnc(-c2cccc(Cc3nn(-c4cnn(C)c4)ccc3=O)c2)nc1 [Example 267, 3-{3-[5-(2-methoxy-2-methylpropoxy)pyrimidin-2-yl]benzyl}-1-(1-methyl-1H-pyrazol-4-yl)pyridazin-4(1H)-one]
< 100 | Cn1cc(-n2ccc(=O)c(Cc3cccc(-c4ncc(OCC5(CO)COC5)cn4)c3)n2)cn1 [Example 268, 3-[3-(5-{[3-(hydroxymethyl)oxetan-3-yl]methoxy}pyrimidin-2-yl)benzyl]-1-(1-methyl-1H-pyrazol-4-yl)pyridazin-4(1H)-one]
< 100 | CC(C)Oc1cnc(-c2cccc(Cc3nn(-c4cnn(C)c4)ccc3=O)c2)nc1 [Example 270, 3-{3-[5-(1-methylethoxy)pyrimidin-2-yl]benzyl}-1-(1-methyl-1H-pyrazol-4-yl)pyridazin-4(1H)-one]

Reference: patent US20120264735A1 (priority 2009, published 2012)
